Read-outs that look alike come from different tables or passages of the source.
Experiments:
in vivo [1] = conditions: mouse
solubility = assay type: physicochemical
[2] = tested on: brewers' yeast-induced hyperthermia; test: antipyretic activity, brewers' yeast-induced hyperthermia; assay type: in vivo, albino male Wistar rats
Method: The animals were caged under the same conditions as those described in the preceding tests. Five hours following […], determined by a rectal probe connected to a YSI thermometer (73 ATP model, Yellow Springs Instrument Company) were selected for the experiment. The animals were then randomized into groups of 10 and the compounds under examination and the vehicle were administered via the oral and parenteral routes testing each dose in two groups. Body temperature was determined at one, two and three hours after administration of the substances. […]

gastric lesions = assay type: in vivo, male Wistar rats; conditions: 4 consecutive days; for gastric damage index: I=mean no. of lesions+mean of severity+% incidence/10; for mean severity: scale 0 (no lesion) to 5 (perforations)
Method: Male Wistar rats weighing 180 g were randomized into groups of 10. Three doses of each compound were administered. One group received the vehicle alone (10 ml/kg b.w.). Each dose was given orally for four days consecutively and the rats were sacrificed on the fifth day for necropsy. The ulcerogenic effect was evaluated by the following scale:
(1) each haemorrhagic point at least 1 mm in diameter was scored as 1 lesion,
(2) haemorrhagic points less than 1 mm in diameter were scored in the following manner:
(c) 20 to 29=three lesions
By means of this scale it was possible to obtain the gastric damage index:
I=mean no. of lesions+mean of severity+% incidence/10

in vivo [3] = conditions: rat

SMILES	% Temperature decrease ([2]; 50 mg/Kg i.p., 1 h) [%]	% Temperature decrease ([2]; 50 mg/Kg i.p., 2 h) [%]	% Temperature decrease ([2]; 50 mg/Kg i.p., 3 h) [%]	% Temperature decrease ([2]; 50 mg/Kg per os, 1 h) [%]	% Temperature decrease ([2]; 50 mg/Kg per os, 2 h) [%]	% Temperature decrease ([2]; 50 mg/Kg per os, 3 h) [%]	% Temperature decrease ([2]; 75 mg/Kg i.p., 1 h) [%]	% Temperature decrease ([2]; 75 mg/Kg i.p., 2 h) [%]	% Temperature decrease ([2]; 75 mg/Kg i.p., 3 h) [%]	% Temperature decrease ([2]; 75 mg/Kg per os, 1 h) [%]	% Temperature decrease ([2]; 75 mg/Kg per os, 2 h) [%]	% Temperature decrease ([2]; 75 mg/Kg per os, 3 h) [%]	% Temperature decrease ([2]; 100 mg/Kg i.p., 1 h) [%]	% Temperature decrease ([2]; 100 mg/Kg i.p., 2 h) [%]	% Temperature decrease ([2]; 100 mg/Kg i.p., 3 h) [%]	% Temperature decrease ([2]; 100 mg/Kg per os, 1 h) [%]	% Temperature decrease ([2]; 100 mg/Kg per os, 2 h) [%]	% Temperature decrease ([2]; 100 mg/Kg per os, 3 h) [%]	% incidence/10 (head is drawing 38) (gastric lesions; 50 mg/Kg orally)	mean no. of lesions (gastric lesions; 50 mg/Kg orally)	also measured
Cc1ccc(C(=O)c2ccc(CC(=O)NCC(=O)O)n2C)cc1 [Compound 1-c, 1-methyl-5-p-toluoylpyrrole-2-acetamidoacetic acid]	20.0	21.9	36.0	15.0	23.0	32.0	19.0	32.6	45.2	16.5	30.7	42.1	35.0	49.1	65.7	27.1	31.2	57.9	7	1	LD50 (in vivo [1]; ip): 700 mg/kg; LD50 (in vivo [1]; po): 1000 mg/kg; Solubility (solubility): soluble in alkali; gastric damage index (gastric lesions; 50 mg/Kg orally): 9.5; mean severity (gastric lesions; 50 mg/Kg orally): 1.5; % incidence/10 (head is drawing 38) (gastric lesions; 100 mg/Kg orally): 8; mean no. of lesions (gastric lesions; 100 mg/Kg orally): 2; gastric damage index (gastric lesions; 100 mg/Kg orally): 12; mean severity (gastric lesions; 100 mg/Kg orally): 2; % incidence/10 (head is drawing 38) (gastric lesions; 200 mg/Kg orally): 9; mean no. of lesions (gastric lesions; 200 mg/Kg orally): 2.5; gastric damage index (gastric lesions; 200 mg/Kg orally): 13.5; mean severity (gastric lesions; 200 mg/Kg orally): 2; LD50 (in vivo [3]; ip): 780 mg/kg; LD50 (in vivo [3]; po): 1300 mg/kg
CCOC(=O)c1ccc(NC(=O)Cc2ccc(C(=O)c3ccc(C)cc3)n2C)cc1 [Compound 1-h, 1-methyl-5-p-toluoylpyrrole-2-N-(4-carboxyethyl-phenyl) acetamide]	12.0	29.1	36.2	13.0	28.0	31.1	18.0	27.2	39.4	17.0	29.1	39.4	23.1	39.3	60.2	21.0	35.1	51.8	7	1	gastric damage index (gastric lesions; 50 mg/Kg orally): 9; mean severity (gastric lesions; 50 mg/Kg orally): 1; % incidence/10 (head is drawing 38) (gastric lesions; 100 mg/Kg orally): 8; mean no. of lesions (gastric lesions; 100 mg/Kg orally): 1.5; gastric damage index (gastric lesions; 100 mg/Kg orally): 10.5; mean severity (gastric lesions; 100 mg/Kg orally): 1; % incidence/10 (head is drawing 38) (gastric lesions; 200 mg/Kg orally): 8; mean no. of lesions (gastric lesions; 200 mg/Kg orally): 2; gastric damage index (gastric lesions; 200 mg/Kg orally): 11.5; mean severity (gastric lesions; 200 mg/Kg orally): 1.5

From US4882349A, “Pyrrolacetic amides having antiinflammatory activity” (priority 1982, dated 1989)
